Data set [1] can be described thus: Solubility testing in buffer. The data set is classed as physicochemical. The conditions noted are these: target solubility 10.0 mg/ml. The method, then: Prior to the testing of solubility of a peptide batch, its purity (HPLC-UV) was determined.
Acetate Buffer 50 mM pH4.5: 0.75 g C2H3C02Na,3H2O (Sigma S7545)+0.35 ml CH3CO2H 100% solution dissolved in Millipore water, adjusted to pH with diluted (1:1) CH3CO2H and diluted to 250 ml with Millipore water.
In a 4 ml Ependorph vial, an accurately weighed sample of compound was diluted in study media to obtain target concentration of 2, 6 or 10 mg/ml of pure compound. The sample vials were shacked (rock 'roll shaker) for ˜19 h. 300 μL aliquots were filtered through a Millipore “Solvinert” plate (0.45 μm-PTFE hydrophilic).
pH was measured with a micro electrode
Waters Acquity UPLC System with DAD detector
Column: Waters Peptide Column CSH C18 (130 Å; 1.7 μm; 50*2.1 mm)
Column temperature: 60° C.
Full loop (about 5 μL)—overfill factor 5
Weak et Strong wash: H2O/ACN (75/25; V/V); Seal wash: H2O/IsOH (95/5; V/V). Mobile phase:
Solvent A: 0.05% TFA in H2O; Solvent B: 0.035% TFA in CH3CN
Gradient: from 0 to 12 min B=2% to 60%, from 12 to 14 min B=60% to 100%. Column washing 100% B 1 min, column equilibration 2% B 2.5 min.
UV detector: wavelength: 220 nm.

For another data set, the target named is T1, RXFP1 (Homo sapiens, UniProt Q9HBX9).
T1 construct: OVCAR5 cells expressing endogenous RXFP1; endogenous in cells; host or cells: OVCAR5
T1 sequence (Q9HBX9 1-757): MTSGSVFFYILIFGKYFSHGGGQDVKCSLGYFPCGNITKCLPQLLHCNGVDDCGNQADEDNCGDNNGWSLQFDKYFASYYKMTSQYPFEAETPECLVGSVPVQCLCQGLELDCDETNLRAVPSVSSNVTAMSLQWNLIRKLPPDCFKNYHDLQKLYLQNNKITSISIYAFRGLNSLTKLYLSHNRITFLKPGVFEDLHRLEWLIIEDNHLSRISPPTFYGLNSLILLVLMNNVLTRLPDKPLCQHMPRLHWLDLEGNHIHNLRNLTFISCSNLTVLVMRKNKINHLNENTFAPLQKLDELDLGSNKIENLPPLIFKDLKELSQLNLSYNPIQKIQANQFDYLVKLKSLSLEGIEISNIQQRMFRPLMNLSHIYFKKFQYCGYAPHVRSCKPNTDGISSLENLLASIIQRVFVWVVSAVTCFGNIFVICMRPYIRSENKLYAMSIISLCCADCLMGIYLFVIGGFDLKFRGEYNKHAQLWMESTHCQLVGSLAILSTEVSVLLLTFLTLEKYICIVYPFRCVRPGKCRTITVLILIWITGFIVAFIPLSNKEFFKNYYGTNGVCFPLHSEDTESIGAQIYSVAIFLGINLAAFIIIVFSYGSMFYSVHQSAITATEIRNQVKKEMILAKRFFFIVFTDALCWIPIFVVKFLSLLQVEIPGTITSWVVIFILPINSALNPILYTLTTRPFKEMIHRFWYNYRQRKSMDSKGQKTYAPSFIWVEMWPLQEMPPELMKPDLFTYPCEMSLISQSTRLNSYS
As to the kind of experiment: OVCAR5 cAMP assay (HTRF). The data set is classed as cell-based. The conditions noted are these: for EC50: OVCAR 5 cells expressing endogenous RXFP1, cAMP readout; for Emax: OVCAR 5 cells, maximal cAMP relative to H2-relaxin. The method, boiled down: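 Endogenous RXFP1 in OVCAR5 cells, pretreated 40 min at 37° C with 1 mM IBMX, then exposed to increasing peptide concentrations in serum-free medium for 30 min at 37° C. cAMP read by HTRF; EC50 by variable-slope sigmoidal fit, Emax as % of H2-relaxin maximal cAMP in same run.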

The mark [2] stands for this setting: acetate buffer 50 mM pH 4.5, read-out: Solubility Acetate buffer pH 4.5.
Setting [3] is: phosphate buffer 50 mM pH 7.4, read-out: Solubility phosphate buffer pH 7.4.

≈ marks a conversion by molar mass, not a printed value. Like-named read-outs stand apart in the source and are kept apart here. Starred links: 1 amine or outer side, 2 acyl side, 3 side chain; linkers in the order of their positions; H or OH if unused. Non-standard residues stand in square brackets, D forms with d. Residues, ends and D or L forms follow the SMILES beside them. Groups on a side chain read outwards from the residue. *: point of attachment. X1 = CCCCCCCCCCCCCCCC(=O)N[C@@H](CCC(=O)N[C@@H](CCC(=O)N[C@@H](CCC(=O)NCCCOCCOCCOCCCNC(=O)CCC(=O)NCCCOCCOCCOCCCNC(=O)CCC(=O)NCCCOCCOCCOCCCN*)C(=O)O)C(=O)O)C(=O)O; X2 = CCCCCCCCCCCCCCCC(=O)N[C@@H](CCC(=O)N[C@@H](CCC(=O)N[C@@H](CCC(=O)NCCCOCCOCCOCCCNC(=O)CCC(=O)NCCCOCCOCCOCCCN*)C(=O)O)C(=O)O)C(=O)O; γGlu = O=C(O)[C@H](CCC(=O)[*:2])N[*:1]; Stearoyl = CCCCCCCCCCCCCCCCCC(=O)*; Suc = O=C(CCC(=O)[*:2])[*:1]; αMeK = C[C@](N)(CCCCN)C(=O)O; AEEA = NCCOCCOCC(=O)O; Aib = CC(C)(N)C(=O)O

As for `CCCCCCCCCCCCCCCC(=O)N[C@@H](CCC(=O)N[C@@H](CCC(=O)N[C@@H](CCC(=O)NCCCOCCOCCOCCCNC(=O)CCC(=O)NCCCOCCOCCOCCCNC(=O)CCC(=O)NCCCC[C@H](NC(=O)CNC(=O)[C@H](CCC(=O)O)NC(=O)C(C)(C)NC(=O)C(C)(C)NC(=O)[C@@H](NC(=O)[C@H](CCCCNC(C)=O)NC(=O)[C@H](C)NC(=O)[C@H](CCCNC(=N)N)NC(=O)[C@@H](NC(=O)[C@H](CCCCN)NC(=O)[C@H](CCC(=O)O)NC(=O)[C@H](CCCNC(=N)N)NC(=O)CNC(=O)[C@H](CCC(=O)O)NC(=O)[C@H](CC(C)C)NC(C)=O)C(C)C)[C@@H](C)CC)C(=O)N[C@@H](CO)C(=O)N[C@H](C(=O)N[C@@H](Cc1c[nH]c2ccccc12)C(=O)N[C@@H](CO)C(=O)N[C@H](CCCCN)C(=O)N[C@@H](CCCNC(=N)N)C(=O)N[C@@H](CCCCN)C(=O)N[C@@H](CCCCNC(C)=O)C(N)=O)[C@@H](C)O)C(=O)O)C(=O)O)C(=O)O` [compound 18] (Ac-LEGREKVRAK(Ac)I[Aib][Aib]EGK([Suc-X2])STWS[dK]RKK(Ac)-NH2), the solubility (usually how much of the substance goes into solution per volume) in data set [1] (setting [2]) is 6750 µg/mL (≈ 1630 µM). Moreover, the solubility in data set [1] (setting [3]) was 6580 µg/mL (≈ 1590 µM). Moreover, at RXFP1, it took 1.54 nM to reach a half-maximal effect (EC50) and the maximal effect (Emax) (in general, the maximal effect, on the per cent scale that the assay sets) is 92%.

`CCCCCCCCCCCCCCCCCC(=O)N[C@@H](CCC(=O)N[C@@H](CCC(=O)N[C@@H](CCC(=O)NCCOCCOCC(=O)NCCOCCOCC(=O)NCCOCCOCC(=O)NCCOCCOCC(=O)NCCCC[C@H](NC(=O)CNC(=O)[C@H](CCC(=O)O)NC(=O)C(C)(C)NC(=O)C(C)(C)NC(=O)[C@@H](NC(=O)[C@H](CCCCNC(C)=O)NC(=O)[C@H](C)NC(=O)[C@H](CCCNC(=N)N)NC(=O)[C@@H](NC(=O)[C@H](CCCCN)NC(=O)[C@H](CCC(=O)O)NC(=O)[C@H](CCCNC(=N)N)NC(=O)CNC(=O)[C@H](CCC(=O)O)NC(=O)[C@H](CC(C)C)NC(C)=O)C(C)C)[C@@H](C)CC)C(=O)N[C@@H](CO)C(=O)N[C@H](C(=O)N[C@@H](Cc1c[nH]c2ccccc12)C(=O)N[C@@H](CO)C(=O)NC(C)(C)C(=O)N[C@@H](CCCNC(=N)N)C(=O)N[C@@H](CCCCN)C(=O)N[C@@H](CCCCNC(C)=O)C(N)=O)[C@@H](C)O)C(=O)O)C(=O)O)C(=O)O` [compound 21] (Ac-LEGREKVRAK(Ac)I[Aib][Aib]EGK([AEEA-AEEA-AEEA-AEEA-γGlu-γGlu-γGlu-Stearoyl])STWS[Aib]RKK(Ac)-NH2): the results for the solubility in data set [1] (setting [2]) and in data set [1] (setting [3]) were 6280 µg/mL (≈ 1530 µM) and 6590 µg/mL (≈ 1610 µM), respectively. Also, the EC50 (usually the concentration giving half of the maximal effect) on RXFP1 was found to be 0.65 nM. Moreover, the Emax at RXFP1 came out at 93%.

With `CCCCCCCCCCCCCCCC(=O)N[C@@H](CCC(=O)N[C@@H](CCC(=O)N[C@@H](CCC(=O)NCCCOCCOCCOCCCNC(=O)CCC(=O)NCCCOCCOCCOCCCNC(=O)CCC(=O)NCCCOCCOCCOCCCNC(=O)CCC(=O)NCCCC[C@H](NC(=O)CNC(=O)[C@H](CCC(=O)O)NC(=O)C(C)(C)NC(=O)C(C)(C)NC(=O)[C@@H](NC(=O)[C@H](CCCCNC(C)=O)NC(=O)[C@H](C)NC(=O)[C@H](CCCNC(=N)N)NC(=O)[C@@H](NC(=O)[C@H](CC(C)C)NC(=O)[C@H](CCC(=O)O)NC(=O)[C@H](CCCNC(=N)N)NC(=O)CNC(=O)[C@H](CCC(=O)O)NC(=O)[C@H](CC(C)C)NC(C)=O)C(C)C)[C@@H](C)CC)C(=O)N[C@@H](CO)C(=O)N[C@H](C(=O)N[C@@H](Cc1ccccc1)C(=O)N[C@@H](CO)C(=O)N[C@@](C)(CCCCN)C(=O)N[C@@H](CCCNC(=N)N)C(=O)N[C@@H](C)C(=O)N[C@@H](CCCCNC(C)=O)C(N)=O)[C@@H](C)O)C(=O)O)C(=O)O)C(=O)O` [compound 23] (Ac-LEGRELVRAK(Ac)I[Aib][Aib]EGK([Suc-X1])STFS[αMeK]RAK(Ac)-NH2), in data set [1] (setting [2]), the solubility was 550 µg/mL (≈ 127 µM). For the same compound, the solubility in data set [1] (setting [3]) came out at 6770 µg/mL (≈ 1560 µM). On RXFP1, this compound yielded an EC50 of 11.1 nM and a maximal effect (Emax) of 92%.
